In US12139492B2 (Endotarget Inc., priority 2021, dated 2024):

How the values were obtained:
BTK = BTK (Homo sapiens, UniProt Q06187); assay: Degradation of BTK protein in Namalwa cells (Western blot; DC50, Dmax); conditions: for DC50: read-out: DC50 (BTK degradation), concentration giving 50% reduction of BTK expression level, cell line not given; for Dmax: read-out: Dmax (BTK degradation)
JeKo-1 cells = assay: Antiproliferative effect, MTS cell viability assay, JeKo-1 cells; type: cell-based; conditions: Homo sapiens; JeKo-1 mantle cell lymphoma cells; read-out: IC50 (anti-proliferation) JeKO-1 cells
Method in brief: (§1)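 MTS read-out, A490 of formazan from metabolically active cells; compound 0–10 μM (0, 0.001, 0.01, 0.1, 1, 10 μM), 72 h exposure.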

Mino cells = assay: Antiproliferative effect, MTS cell viability assay, Mino cells; type: cell-based; conditions: Homo sapiens, MINO, Mino mantle cell lymphoma cells; read-out: IC50 (anti-proliferation) Mino cells
Method in brief: as §1

Chain of BTK (Q06187 whole entry): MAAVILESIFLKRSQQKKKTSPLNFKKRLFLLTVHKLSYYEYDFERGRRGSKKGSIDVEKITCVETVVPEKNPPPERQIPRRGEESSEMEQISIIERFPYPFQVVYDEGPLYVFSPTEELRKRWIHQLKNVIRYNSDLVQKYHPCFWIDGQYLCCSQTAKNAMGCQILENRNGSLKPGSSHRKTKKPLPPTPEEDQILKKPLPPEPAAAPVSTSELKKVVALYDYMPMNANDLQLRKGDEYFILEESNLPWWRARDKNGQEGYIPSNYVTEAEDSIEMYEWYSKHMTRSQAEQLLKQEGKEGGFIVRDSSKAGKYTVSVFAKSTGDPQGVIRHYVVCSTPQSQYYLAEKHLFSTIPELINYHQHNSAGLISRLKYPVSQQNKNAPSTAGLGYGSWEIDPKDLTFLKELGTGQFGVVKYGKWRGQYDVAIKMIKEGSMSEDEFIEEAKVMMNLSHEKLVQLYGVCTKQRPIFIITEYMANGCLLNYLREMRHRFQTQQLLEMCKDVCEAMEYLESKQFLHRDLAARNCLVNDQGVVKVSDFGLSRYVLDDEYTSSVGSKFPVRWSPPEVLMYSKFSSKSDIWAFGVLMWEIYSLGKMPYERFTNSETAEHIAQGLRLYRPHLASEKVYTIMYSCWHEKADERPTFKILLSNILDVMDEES

## Nc1ncnc2c1c(-c1ccc(Oc3ccccc3)cc1)nn2C1CCN(C2CCN(CCCCC#Cc3ccc(N4CCC(=O)NC4=O)cc3)C2)CC1 (centres unmarked) [Compound 536, 1-(4-(6-(3-(4-(4-amino-3-(4-phenoxyphenyl)-1H-pyrazolo[3,4-d]pyrimidin-1-yl)piperidin-1-yl)pyrrolidin-1-yl)hex-1-yn-1-yl)phenyl)dihydropyrimidine-2,4(1H,3H)-dione]
BTK
  DC50: > 50 nM
  Dmax: > 50%
JeKo-1 cells
  IC50: > 10000 nM
Mino cells
  IC50: > 10000 nM

## Nc1ncnc2c1c(-c1ccc(Oc3ccccc3)cc1)nn2C1CCN(C2CCN(CCCC#Cc3ccc(N4CCC(=O)NC4=O)cc3)C2)CC1 (centres unmarked) [Compound 537, 1-(4-(5-(3-(4-(4-amino-3-(4-phenoxyphenyl)-1H-pyrazolo[3,4-d]pyrimidin-1-yl)piperidin-1-yl)pyrrolidin-1-yl)pent-1-yn-1-yl)phenyl)dihydropyrimidine-2,4(1H,3H)-dione]
BTK
  DC50: > 50 nM
  Dmax: > 50%
JeKo-1 cells
  IC50: > 10000 nM
Mino cells
  IC50: > 10000 nM

## Nc1ncnc2c1c(-c1ccc(Oc3ccccc3)cc1)nn2C1CCN(CCCC#Cc2ccc(N3CCC(=O)NC3=O)cc2)CC1 [Compound 538, 1-(4-(5-(4-(4-amino-3-(4-phenoxyphenyl)-1H-pyrazolo[3,4-d]pyrimidin-1-yl)piperidin-1-yl)pent-1-yn-1-yl)phenyl)dihydropyrimidine-2,4(1H,3H)-dione]
BTK
  DC50: > 50 nM
  Dmax: > 50%
JeKo-1 cells
  IC50: > 10000 nM
Mino cells
  IC50: > 10000 nM

## Nc1ncnc2c1c(-c1ccc(Oc3ccccc3)cc1)nn2C1CCN(CCCCC#Cc2ccc(N3CCC(=O)NC3=O)cc2)CC1 [Compound 539, 1-(4-(6-(4-(4-amino-3-(4-phenoxyphenyl)-1H-pyrazolo[3,4-d]pyrimidin-1-yl)piperidin-1-yl)hex-1-yn-1-yl)phenyl)dihydropyrimidine-2,4(1H,3H)-dione]
BTK
  DC50: > 50 nM
  Dmax: > 50%
JeKo-1 cells
  IC50: > 10000 nM
Mino cells
  IC50: > 10000 nM

## Nc1ncnc2c1c(-c1ccc(Oc3ccccc3)cc1)nn2C1CCN(CCC#Cc2ccc(N3CCC(=O)NC3=O)cc2)CC1 [Compound 540, 1-(4-(4-(4-(4-amino-3-(4-phenoxyphenyl)-1H-pyrazolo[3,4-d]pyrimidin-1-yl)piperidin-1-yl)but-1-yn-1-yl)phenyl)dihydropyrimidine-2,4(1H,3H)-dione]
BTK
  DC50: > 50 nM
  Dmax: > 50%
JeKo-1 cells
  IC50: > 10000 nM
Mino cells
  IC50: > 10000 nM

## Nc1ncnc2c1c(-c1ccc(Oc3ccccc3)cc1)nn2C1CCN(CC2CCN(CC3CCN(c4ccc5c(c4)oc(=O)n5C4CCC(=O)NC4=O)CC3)C2)CC1 (centres unmarked) [Compound 541, 3-(6-(4-((3-((4-(4-amino-3-(4-phenoxyphenyl)-1H-pyrazolo[3,4-d]pyrimidin-1-yl)piperidin-1-yl)methyl)pyrrolidin-1-yl)methyl)piperidin-1-yl)-2-oxobenzo[d]oxazol-3(2H)-yl)piperidine-2,6-dione]
BTK
  DC50: 10 to 50 nM
  Dmax: > 75%
JeKo-1 cells
  IC50: 1000 to 10000 nM
Mino cells
  IC50: 1000 to 10000 nM

## Nc1ncnc2c1c(-c1ccc(Oc3ccccc3)cc1)nn2C1CCN(CCN2CCC(CN3CCC(c4ccc5c(c4)oc(=O)n5C4CCC(=O)NC4=O)CC3)C2)CC1 (centres unmarked) [Compound 542, 3-(6-(1-((1-(2-(4-(4-amino-3-(4-phenoxyphenyl)-1H-pyrazolo[3,4-d]pyrimidin-1-yl)piperidin-1-yl)ethyl)pyrrolidin-3-yl)methyl)piperidin-4-yl)-2-oxobenzo[d]oxazol-3(2H)-yl)piperidine-2,6-dione]
BTK
  DC50: 10 to 50 nM
  Dmax: > 75%
JeKo-1 cells
  IC50: 1000 to 10000 nM
Mino cells
  IC50: 1000 to 10000 nM

## Nc1ncnc2c1c(-c1ccc(Oc3ccccc3)cc1)nn2C1CCN(CCCN2CCC(CN3CCC(c4ccc5c(c4)oc(=O)n5C4CCC(=O)NC4=O)CC3)C2)CC1 (centres unmarked) [Compound 543, 3-(6-(1-((1-(3-(4-(4-amino-3-(4-phenoxyphenyl)-1H-pyrazolo[3,4-d]pyrimidin-1-yl)piperidin-1-yl)propyl)pyrrolidin-3-yl)methyl)piperidin-4-yl)-2-oxobenzo[d]oxazol-3(2H)-yl)piperidine-2,6-dione]
BTK
  DC50: 10 to 50 nM
  Dmax: > 75%
JeKo-1 cells
  IC50: 1000 to 10000 nM
Mino cells
  IC50: 1000 to 10000 nM

## Nc1ncnc2c1c(-c1ccc(Oc3ccccc3)cc1)nn2C1CCN(CC2CCN(CC3CCN(c4ccc5c(c4)oc(=O)n5C4CCC(=O)NC4=O)CC3)CC2)CC1 (centres unmarked) [Compound 544, 3-(6-(4-((4-((4-(4-amino-3-(4-phenoxyphenyl)-1H-pyrazolo[3,4-d]pyrimidin-1-yl)piperidin-1-yl)methyl)piperidin-1-yl)methyl)piperidin-1-yl)-2-oxobenzo[d]oxazol-3(2H)-yl)piperidine-2,6-dione]
BTK
  DC50: 10 to 50 nM
  Dmax: > 90%
JeKo-1 cells
  IC50: 1000 to 10000 nM
Mino cells
  IC50: 1000 to 10000 nM

## Nc1ncnc2c1c(-c1ccc(Oc3ccccc3)cc1)nn2C1CCN(CCN2CCC(CN3CCC(c4ccc5c(c4)oc(=O)n5C4CCC(=O)NC4=O)CC3)CC2)CC1 (centres unmarked) [Compound 545, 3-(6-(1-((1-(2-(4-(4-amino-3-(4-phenoxyphenyl)-1H-pyrazolo[3,4-d]pyrimidin-1-yl)piperidin-1-yl)ethyl)piperidin-4-yl)methyl)piperidin-4-yl)-2-oxobenzo[d]oxazol-3(2H)-yl)piperidine-2,6-dione]
BTK
  DC50: 10 to 50 nM
  Dmax: > 90%
JeKo-1 cells
  IC50: 1000 to 10000 nM
Mino cells
  IC50: < 1000 nM

## Nc1ncnc2c1c(-c1ccc(Oc3ccccc3)cc1)nn2C1CCN(CCCN2CCC(CN3CCC(c4ccc5c(c4)oc(=O)n5C4CCC(=O)NC4=O)CC3)CC2)CC1 (centres unmarked) [Compound 546, 3-(6-(1-((1-(3-(4-(4-amino-3-(4-phenoxyphenyl)-1H-pyrazolo[3,4-d]pyrimidin-1-yl)piperidin-1-yl)propyl)piperidin-4-yl)methyl)piperidin-4-yl)-2-oxobenzo[d]oxazol-3(2H)-yl)piperidine-2,6-dione]
BTK
  DC50: < 10 nM
  Dmax: > 90%
JeKo-1 cells
  IC50: < 1000 nM
Mino cells
  IC50: 1000 to 10000 nM

## Nc1ncnc2c1c(-c1ccc(Oc3ccccc3)cc1)nn2C1CCN(CC2CCN(CC3CCN(c4ccc(N5CCC(=O)NC5=O)cc4)CC3)C2)CC1 (centres unmarked) [Compound 547, 1-(4-(4-((3-((4-(4-amino-3-(4-phenoxyphenyl)-1H-pyrazolo[3,4-d]pyrimidin-1-yl)piperidin-1-yl)methyl)pyrrolidin-1-yl)methyl)piperidin-1-yl)phenyl)dihydropyrimidine-2,4(1H,3H)-dione]
BTK
  DC50: < 10 nM
  Dmax: > 90%
JeKo-1 cells
  IC50: 1000 to 10000 nM
Mino cells
  IC50: 1000 to 10000 nM

## Nc1ncnc2c1c(-c1ccc(Oc3ccccc3)cc1)nn2C1CCN(CCN2CCC(CN3CCC(c4ccc(N5CCC(=O)NC5=O)cc4)CC3)C2)CC1 (centres unmarked) [Compound 548, 1-(4-(1-((1-(2-(4-(4-amino-3-(4-phenoxyphenyl)-1H-pyrazolo[3,4-d]pyrimidin-1-yl)piperidin-1-yl)ethyl)pyrrolidin-3-yl)methyl)piperidin-4-yl)phenyl)dihydropyrimidine-2,4(1H,3H)-dione]
BTK
  DC50: < 10 nM
  Dmax: > 75%
JeKo-1 cells
  IC50: < 1000 nM
Mino cells
  IC50: < 1000 nM

## Nc1ncnc2c1c(-c1ccc(Oc3ccccc3)cc1)nn2C1CCN(CCN2CCC(CN3CCN(c4ccc(N5CCC(=O)NC5=O)cc4)CC3)C2)CC1 (centres unmarked) [Compound 549, 1-(4-(4-((1-(2-(4-(4-amino-3-(4-phenoxyphenyl)-1H-pyrazolo[3,4-d]pyrimidin-1-yl)piperidin-1-yl)ethyl)pyrrolidin-3-yl)methyl)piperazin-1-yl)phenyl)dihydropyrimidine-2,4(1H,3H)-dione]
BTK
  DC50: < 10 nM
  Dmax: > 90%
JeKo-1 cells
  IC50: < 1000 nM
Mino cells
  IC50: < 1000 nM
